Experimental data taken from US11155544B2, “Heterocycle comprising tyrosine kinase inhibitors” (Principia Biopharma Inc., priority 2015, dated 2021).

biological target: human recombinant BTK (Homo sapiens (Human), UniProt Q06187); experiment: BTK Enzymatic Activity Assay (Caliper-based kinase assay); assay type: biochemical; details: human recombinant BTK (0.5 nM), ATP (16 μM), peptide substrate (1 μM), room temperature for 3 h
Method: A Caliper-based kinase assay (Caliper Life Sciences, Hopkinton, Mass.) was used to measure inhibition of BTK kinase activity of a compound of the present disclosure. Serial dilutions of test compounds were incubated with human recombinant BTK (0.5 nM), ATP (16 μM) and a phosphoacceptor peptide substrate FAM-GEEPLYWSFPAKKK-NH2 (1 μM) at room temperature for 3 h. The reaction was then terminated with EDTA, final concentration 20 mM and the phosphorylated reaction product was quantified on a Caliper Desktop Profiler (Caliper LabChip 3000). Percent inhibition was calculated for each compound dilution and the concentration that produced 50% inhibition was calculated. This value is presented as the IC50.

human recombinant BTK, sequence (Q06187 whole entry): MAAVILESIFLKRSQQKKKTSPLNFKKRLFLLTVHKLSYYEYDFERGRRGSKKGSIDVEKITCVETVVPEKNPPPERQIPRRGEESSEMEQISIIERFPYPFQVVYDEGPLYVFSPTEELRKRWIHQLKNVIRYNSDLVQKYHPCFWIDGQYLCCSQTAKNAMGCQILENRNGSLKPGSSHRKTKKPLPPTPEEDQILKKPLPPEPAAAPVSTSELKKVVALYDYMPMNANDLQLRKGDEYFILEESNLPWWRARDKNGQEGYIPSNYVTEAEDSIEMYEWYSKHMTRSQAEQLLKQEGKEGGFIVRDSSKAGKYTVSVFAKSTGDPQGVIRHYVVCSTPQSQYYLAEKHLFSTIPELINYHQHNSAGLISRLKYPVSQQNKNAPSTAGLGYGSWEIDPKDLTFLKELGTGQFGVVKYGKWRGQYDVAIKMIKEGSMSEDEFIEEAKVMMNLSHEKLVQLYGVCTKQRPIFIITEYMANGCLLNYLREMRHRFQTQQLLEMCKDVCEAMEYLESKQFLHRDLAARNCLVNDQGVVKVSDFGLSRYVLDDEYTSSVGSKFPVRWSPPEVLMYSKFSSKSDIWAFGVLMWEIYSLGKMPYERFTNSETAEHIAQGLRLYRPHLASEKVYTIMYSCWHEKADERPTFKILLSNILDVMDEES

Row | Compound | IC50
1 | CC(C)(C)C=C(C#N)C(=O)N1CCC[C@@H](n2nc(-c3ccc(Oc4ccccc4)cc3F)c3c(N)nccc32)C1 [Compound 9, (R)-2-(3-(4-amino-3-(2-fluoro-4-phenoxyphenyl)-1H-pyrazolo[4,3-c]pyridin-1-yl)piperidine-1-carbonyl)-4,4-dimethylpent-2-enenitrile] | 8.6 nM
2 | CN1CCN(C(C)(C)/C=C(\C#N)C(=O)N2CCC[C@@H](n3nc(-c4ccc(Oc5ccccc5)cc4F)c4c(N)nccc43)C2)CC1 [Compound 10, (R)-2-(3-(4-amino-3-(2-fluoro-4-phenoxyphenyl)-1H-pyrazolo[4,3-c]pyridin-1-yl)piperidine-1-carbonyl)-4-methyl-4-(4-methylpiperazin-1-yl)pent-2-enenitrile] | 1.9 nM
3 | CC(C)(/C=C(\C#N)C(=O)N1CCC[C@@H](n2nc(-c3ccc(Oc4ccccc4)cc3F)c3c(N)nccc32)C1)N1CCOCC1 [Compound 11, (R)-2-(3-(4-amino-3-(2-fluoro-4-phenoxyphenyl)-1H-pyrazolo[4,3-c]pyridin-1-yl)piperidine-1-carbonyl)-4-methyl-4-morpholinopent-2-enenitrile] | 2 nM
4 | CC1(C=C(C#N)C(=O)N2CCC[C@@H](c3nc(-c4ccc(Oc5ccccc5)cc4)c4c(N)nccn34)C2)CCOCC1 [Compound 54, (R)-2-(3-(8-amino-1-(4-phenoxyphenyl)imidazo[1,5-a]pyrazin-3-yl)piperidine-1-carbonyl)-3-(4-methyltetrahydro-2H-pyran-4-yl)acrylonitrile] | 1.7 nM
5 | COC(=O)N1CCN(C(C)(C)C=C(C#N)C(=O)N2CCC[C@@H](c3nc(-c4ccc(Oc5ccccc5)cc4)c4c(N)nccn34)C2)CC1 [Compound 56, (R)-methyl 4-(5-(3-(8-amino-1-(4-phenoxyphenyl)imidazo[1,5-a]pyrazin-3-yl)piperidin-1-yl)-4-cyano-2-methyl-5-oxopent-3-en-2-yl)piperazine-1-carboxylate] | 1.2 nM
6 | CC(=O)N1CCN(C(C)(C)C=C(C#N)C(=O)N2CCC[C@@H](c3nc(-c4ccc(Oc5ccccc5)cc4)c4c(N)nccn34)C2)CC1 [Compound 57, (R)-4-(4-acetylpiperazin-1-yl)-2-(3-(8-amino-1-(4-phenoxyphenyl)imidazo[1,5-a]pyrazin-3-yl)piperidine-1-carbonyl)-4-methylpent-2-enenitrile] | 1.1 nM
7 | COC(=O)N1CCN(C(C)(C)C=C(C#N)C(=O)N2CCC[C@@H](c3nc(-c4ccc(Oc5ccccc5)cc4F)c4c(N)nccn34)C2)CC1 [Compound 58, (R)-methyl 4-(5-(3-(8-amino-1-(2-fluoro-4-phenoxyphenyl)imidazo[1,5-a]pyrazin-3-yl)piperidin-1-yl)-4-cyano-2-methyl-5-oxopent-3-en-2-yl)piperazine-1-carboxylate] | 2.8 nM
8 | CC(=O)N1CCN(C(C)(C)C=C(C#N)C(=O)N2CCC[C@@H](c3nc(-c4ccc(Oc5ccccc5)cc4F)c4c(N)nccn34)C2)CC1 [Compound 59, (R)-4-(4-acetylpiperazin-1-yl)-2-(3-(8-amino-1-(2-fluoro-4-phenoxyphenyl)imidazo[1,5-a]pyrazin-3-yl)piperidine-1-carbonyl)-4-methylpent-2-enenitrile] | 1.4 nM
9 | CC(C)(C=C(C#N)C(=O)N1CCC[C@@H](c2nc(-c3ccc(Oc4ccccc4)cc3F)c3c(N)nccn23)C1)N1CCN2C(=O)CC[C@H]2C1 [Compound 62, 2-((R)-3-(8-amino-1-(2-fluoro-4-phenoxyphenyl)imidazo[1,5-a]pyrazin-3-yl)piperidine-1-carbonyl)-4-methyl-4-((S)-6-oxohexahydropyrrolo[1,2-a]pyrazin-2(1H)-yl)pent-2-enenitrile] | 2.2 nM
10 | CC(C)(C=C(C#N)C(=O)N1CCC[C@@H](c2nc(-c3ccc(Oc4ccccc4)cc3F)c3c(N)nccn23)C1)N1CCN2C(=O)CC[C@@H]2C1 [Compound 63, 2-((R)-3-(8-amino-1-(2-fluoro-4-phenoxyphenyl)imidazo[1,5-a]pyrazin-3-yl)piperidine-1-carbonyl)-4-methyl-4-((R)-6-oxohexahydropyrrolo[1,2-a]pyrazin-2(1H)-yl)pent-2-enenitrile] | 0.9 nM
11 | CC(C)(C=C(C#N)C(=O)N1CCC[C@@H](c2nc(-c3ccc(Oc4ccccc4)cc3)c3c(N)nccn23)C1)N1CCN2C(=O)CC[C@H]2C1 [Compound 64, 2-((R)-3-(8-amino-1-(4-phenoxyphenyl)imidazo[1,5-a]pyrazin-3-yl)piperidine-1-carbonyl)-4-methyl-4-((S)-6-oxohexahydropyrrolo[1,2-a]pyrazin-2(1H)-yl)pent-2-enenitrile] | 0.8 nM
12 | CC(C)(C=C(C#N)C(=O)N1CCC[C@@H](c2nc(-c3ccc(Oc4ccccc4)cc3)c3c(N)nccn23)C1)N1CCN2C(=O)CC[C@@H]2C1 [Compound 65, 2-((R)-3-(8-amino-1-(4-phenoxyphenyl)imidazo[1,5-a]pyrazin-3-yl)piperidine-1-carbonyl)-4-methyl-4-((R)-6-oxohexahydropyrrolo[1,2-a]pyrazin-2(1H)-yl)pent-2-enenitrile] | 0.6 nM
13 | CN1CCN(C(=O)C(C#N)=CC(C)(C)C)C[C@@H]1c1nc(-c2ccc(Oc3ccccc3)cc2)c2c(N)nccn12 [Compound 66, (R)-2-(3-(8-amino-1-(4-phenoxyphenyl)imidazo[1,5-a]pyrazin-3-yl)-4-methylpiperazine-1-carbonyl)-4,4-dimethylpent-2-enenitrile] | 0.3 nM
14 | CN1CCN(C(=O)C(C#N)=CC2(C)CCOCC2)C[C@@H]1c1nc(-c2ccc(Oc3ccccc3)cc2)c2c(N)nccn12 [Compound 67, (R)-2-(3-(8-amino-1-(4-phenoxyphenyl)imidazo[1,5-a]pyrazin-3-yl)-4-methylpiperazine-1-carbonyl)-3-(4-methyltetrahydro-2H-pyran-4-yl)acrylonitrile] | 0.2 nM
15 | CN1CCN(C(C)(C)C=C(C#N)C(=O)N2CCC[C@@H](n3nc(-c4ccc(Oc5ccccc5)cc4F)c4c(N)nccc43)C2)CC1=O [Compound 72, (R)-2-(3-(4-amino-3-(2-fluoro-4-phenoxyphenyl)-1H-pyrazolo[4,3-c]pyridin-1-yl)piperidine-1-carbonyl)-4-methyl-4-(4-methyl-3-oxopiperazin-1-yl)pent-2-enenitrile] | 2 nM

tested on: CD69 expression; experiment: Blockade of CD69 Expression in Human Whole Blood Samples; assay type: cell-based; details: 30 minutes pre-incubation, activation with anti-IgM, cells gated on CD20, CD69 by FACS
Method: Activation of the B cell receptor leads to increased BTK activity, calcium mobilization and B cell activation (see Honigberg L. A., et. al., Proc Natl Acad Sci USA. 107:13075-80. 2010). […] CD69 was expressed following B cell activation as a measure of BTK activity in whole blood. Aliquots of whole blood were pre-incubated with serial dilutions of test compound for 30 minutes followed by activation with anti-IgM (goat Fab′ 2, 50 μg/ml). Samples were incubated overnight at 37° C. and then stained with PE labeled anti-CD20 and APC labeled anti-CD69 (BD Pharmingen) for 30 minutes according to the manufacturer's directions. Whole blood was then lysed and cells gated on CD20 expression were quantified for CD 69 expression by FACS. The percent inhibition was calculated based on a DMSO control for no inhibition and plotted as a function of test compound concentration from which an IC50 value was calculated.

Row | Compound | IC50
16 | CC(C)(C=C(C#N)C(=O)N1CCC[C@@H](n2nc(-c3ccc(Oc4ccccc4)cc3F)c3c(N)nccc32)C1)N1CCN(C2COC2)CC1 [Compound 1, (R)-2-(3-(4-amino-3-(2-fluoro-4-phenoxyphenyl)-1H-pyrazolo[4,3-c]pyridin-1-yl)piperidine-1-carbonyl)-4-methyl-4-(4-(oxetan-3-yl)piperazin-1-yl)pent-2-enenitrile] | 109 nM
17 | CC(C)(C=C(C#N)C(=O)N1CCC[C@@H](n2nc(-c3ccc(Oc4ccccc4)cc3F)c3c(N)nccc32)C1)N1CCN(C2(C)COC2)CC1 [Compound 7, (R)-2-(3-(4-amino-3-(2-fluoro-4-phenoxyphenyl)-1H-pyrazolo[4,3-c]pyridin-1-yl)piperidine-1-carbonyl)-4-methyl-4-(4-(3-methyloxetan-3-yl)piperazin-1-yl)pent-2-enenitrile] | 114 nM
18 | CC(C)(C)C=C(C#N)C(=O)N1CCC[C@@H](n2nc(-c3ccc(Oc4ccccc4)cc3F)c3c(N)nccc32)C1 [Compound 9, (R)-2-(3-(4-amino-3-(2-fluoro-4-phenoxyphenyl)-1H-pyrazolo[4,3-c]pyridin-1-yl)piperidine-1-carbonyl)-4,4-dimethylpent-2-enenitrile] | 526 nM
19 | CN1CCN(C(C)(C)/C=C(\C#N)C(=O)N2CCC[C@@H](n3nc(-c4ccc(Oc5ccccc5)cc4F)c4c(N)nccc43)C2)CC1 [Compound 10, (R)-2-(3-(4-amino-3-(2-fluoro-4-phenoxyphenyl)-1H-pyrazolo[4,3-c]pyridin-1-yl)piperidine-1-carbonyl)-4-methyl-4-(4-methylpiperazin-1-yl)pent-2-enenitrile] | 289 nM
20 | CC(C)(/C=C(\C#N)C(=O)N1CCC[C@@H](n2nc(-c3ccc(Oc4ccccc4)cc3F)c3c(N)nccc32)C1)N1CCOCC1 [Compound 11, (R)-2-(3-(4-amino-3-(2-fluoro-4-phenoxyphenyl)-1H-pyrazolo[4,3-c]pyridin-1-yl)piperidine-1-carbonyl)-4-methyl-4-morpholinopent-2-enenitrile] | 200 nM
21 | CN(C1COC1)C(C)(C)C=C(C#N)C(=O)N1CCC[C@@H](n2nc(-c3ccc(Oc4ccccc4)cc3F)c3c(N)nccc32)C1 [Compound 14, (R)-2-(3-(4-amino-3-(2-fluoro-4-phenoxyphenyl)-1H-pyrazolo[4,3-c]pyridin-1-yl)piperidine-1-carbonyl)-4-methyl-4-(methyl(oxetan-3-yl)amino)pent-2-enenitrile] | 181 nM
